In patent US5254571A, “Chemical compounds” (Smith Kline & French Laboratories Ltd., priority 1988, dated 1993):

Columns and labels:
[1] = biological target: calmodulin insensitive cyclic GMP phosphodiesterase (Homo sapiens, UniProt O76074); assay: Phosphodiesterase activity: inhibition of calmodulin insensitive cyclic GMP phosphodiesterase; type: biochemical; conditions: procedure described in European Patent Application No. 293063; range given for the listed Examples together; read-out: IC50 (concentration of inhibitor required for 50% inhibition of enzyme activity)
Experimental: The activity of the compounds of the present invention as inhibitors of a calmodulin insensitive cyclic GMP phosphodiesterase was measured using the procedure described in European Patent Application No. 293063. […] The compounds of the present invention have the advantage that they are selective in not inhibiting cyclic AMP phosphodiesterase (type III).

[2] = test system: U46619-induced bronchoconstriction; assay: Bronchodilatation in vivo: inhibition of U46619-induced bronchoconstriction in anaesthetised guinea-pigs; set-up: species or system guinea-pig (male, Dunkin Hartley); conditions: Cavia porcellus, iv, U46619 infused i.v. 2.5 nmol/min, compound i.v. bolus, peak inhibition, read-out: BD50 (dose required to reduce the U46619-induced bronchoconstriction by 50%)
Experimental: Male guinea-pigs of the Dunkin Hartley strain (500-600 g) were anaesthetised with Sagatal (pentobarbital sodium) (60 mg/kg). Airway resistance was measured using a modification of the classical Konzett-Rossler technique (J. Pharm. Methods, 13, 309-315, 1985). U46619 (9,11-methanoepoxy-pGH2) was infused i.v. at a rate of 2.5 nmol/min, this produced a steady state of bronchoconstriction (approximately 120% increase from basal airway resistance). The compound under test was administered by i.v. bolus injection, and the subsequent peak inhibition of bronchoconstriction recorded.
The dose of compound required to reduce the U46619-induced bronchoconstriction by 50% is given as the BD50.

[3] = test system: hindquarter blood flow / vascular resistance; assay: Vasodilatation in vivo: hindquarter blood flow in anaesthetised rats; set-up: species or system rat (male Wistar); conditions: Rattus norvegicus, iv, bolus i.v., from dose response curves, read-out: EDHQ50 (dose required to produce a 50% increase in hindquarter blood flow)
Experimental: Male Wistar rats (300 g) were anaesthetised with a sodium 5-ethyl-5-(1-methylpropyl)-2-thiobarbiturate/sodium pentobarbitone mixture i.p. (62.5 and 22.5 mg/kg respectively). The trachea was cannulated and the rats breathed spontaneously air enriched with O2 (5 ml/min). Blood pressure was recorded from a carotid artery and a jugular vein was cannulated for the administration of compounds. The temperature of the animal was maintained at 37° C. by the use of an electric blanket. […] The perfusion circuit was primed with 5% bovine serum albumin dissolved in 0.9% sodium chloride solution, pH adjusted to 7.4. Initially the pump rate was set between 10 and 15 ml/min to match the hind quarter perfusion pressure to that of the systemic circulation. Once set, the pressure remained unaltered for the rest of the experiment. A change in the speed of the pump (equivalent to hindquarter blood flow) was used to assess the changes in hindquarter vascular resistance.
All compounds were administered as a bolus i.v. and from the dose response curves the dose required to produce a 50% increase in hindquarter blood flow (EDHQ50) was determined in μmoles/kg.

[4] = test system: ovalbumen-induced bronchoconstrictor response; assay: Anti-allergic activity: ovalbumen-induced bronchoconstriction in sensitised guinea-pigs; type: in vivo, guinea-pig (male, Duncan Hartley); conditions: 11 μmol/kg i.v. bolus; 30 minutes following drug administration; ovalbumen 1 mg/kg i.v. challenge; n = 6
Experimental: Male Duncan Hartley guinea-pigs (250-300 g) were sensitised to ovalbumen by i.p. injection of 2 ml of 50 mg.ml^-1 i.p. and 0.2 ml s.c. Three weeks later they were anaesthetised with 60 mg.kg^-1 sodium pentabarbitone. The trachea was cannulated and the animal respired at a rate of 40 breaths per minute and at an initial tracheal inflation pressure of 16 mmHg. Tracheal inflation pressure was measured by a transducer connected to a side arm of the respiration circuit The carotid artery was cannulated for the measurement of blood pressure and the signal was used to trigger an instantaneous rate meter. A jugular vein was cannulated for the administration of drug and allergen. After surgery the animals were allowed to stabilise and the drug was administered i.v. as a bolus. Following this, ovalbumen 1 mg.kg^-1 was injected i.v. as the antigen challenge either 2, 15 or 30 minutes following drug treatment and the peak bronchoconstrictor response recorded. For the control group ovalbumen only was given. One ovalbumen challenge per guinea-pig was used and n = 6 for each time point. The percentage increase in tracheal inflation pressure was calculated.

Row | Structure (SMILES) | IC50 [1] [µM] | ED50 [2] [µmol/kg] | ED (50% increase) [3] [µmol/kg] | inhibition of the control bronchoconstrictor response [4] [%]
1 | CCCOc1ccccc1-c1[nH]c(=O)c(C#N)cc1C [Example 12, 3-Cyano-5-methyl-6-(2-propoxyphenyl)-2(1H)-pyridinone] | 1.7 to 30 |  |  | 
2 | CCCOc1ccccc1-c1ccc(C#N)c(=S)[nH]1 [Example 14, 3-Cyano-6-(2-propoxyphenyl)-2(1H)-pyridinethione] | 1.7 to 30 |  |  | 
3 | CCCOc1ccccc1-c1cccc(=O)[nH]1 [Example 6, 6-(2-Propoxyphenyl)-2(1H)-pyridinone] | 1.7 to 30 |  |  | 
4 | CCOc1ccccc1-c1ccc(C#N)c(=O)[nH]1 [Example 9, 3-Cyano-6-(2-ethoxyphenyl)-2(1H)-pyridinone] | 1.7 to 30 |  |  | 
5 | CCCOc1ccccc1-c1ccc([N+](=O)[O-])c(=O)[nH]1 [Example 7, 3-Nitro-6-(2-propoxyphenyl)-2(1H)-pyridinone] | 1.7 to 30 | 7.7 |  | 
6 | CCCOc1ccccc1-c1ccc(C(=O)O)c(=O)[nH]1 [Example 3, 6-(2-Propoxyphenyl)-1,2-dihydro-2-oxopyridine-3-carboxylic acid] |  | 10.6 |  | 
7 | CCCOc1ccccc1-c1ccc(C(=O)OC)c(=O)[nH]1 [Example 4, Methyl 6-(2-propoxyphenyl)-1,2-dihydro-2-oxopyridine-3-carboxylate] | 1.7 to 30 |  |  | 
8 | CCCOc1ccccc1-c1cc(C)c(C#N)c(=O)[nH]1 [Example 11, 3-Cyano-4-methyl-6-(2-propoxyphenyl)-2(1H)-pyridinone] | 1.7 to 30 | 2.3 |  | 
9 | CCCOc1ccccc1-c1ccc(C#N)c(=O)[nH]1 [Example 1, 3-Cyano-6-(2-propoxyphenyl)-2(1H)-pyridinone] | 1.7 to 30 | 10 | 11.5 | 
10 | CCCOc1ccccc1-c1ccc(C(N)=O)c(=O)[nH]1 [Example 2, 6-(2-Propoxyphenyl)-1,2-dihydro-2-oxopyridine-3-carboxamide] | 1.7 to 30 | 1.1 | 14 | 44
